Measured values published in patent US10717716B2, “1,3,4-oxadiazole derivative compounds as histone deacetylase 6 inhibitor, and the pharmaceutical composition comprising the same” (Chong Kun Dang Pharmaceutical Corp., priority 2015, dated 2020).

Molecular target: T1, human recombinant HDAC6 (Homo sapiens, UniProt Q9UBN7)
T1 construct: purchased Calbiochem 382180
T1 sequence (Q9UBN7 1-1215): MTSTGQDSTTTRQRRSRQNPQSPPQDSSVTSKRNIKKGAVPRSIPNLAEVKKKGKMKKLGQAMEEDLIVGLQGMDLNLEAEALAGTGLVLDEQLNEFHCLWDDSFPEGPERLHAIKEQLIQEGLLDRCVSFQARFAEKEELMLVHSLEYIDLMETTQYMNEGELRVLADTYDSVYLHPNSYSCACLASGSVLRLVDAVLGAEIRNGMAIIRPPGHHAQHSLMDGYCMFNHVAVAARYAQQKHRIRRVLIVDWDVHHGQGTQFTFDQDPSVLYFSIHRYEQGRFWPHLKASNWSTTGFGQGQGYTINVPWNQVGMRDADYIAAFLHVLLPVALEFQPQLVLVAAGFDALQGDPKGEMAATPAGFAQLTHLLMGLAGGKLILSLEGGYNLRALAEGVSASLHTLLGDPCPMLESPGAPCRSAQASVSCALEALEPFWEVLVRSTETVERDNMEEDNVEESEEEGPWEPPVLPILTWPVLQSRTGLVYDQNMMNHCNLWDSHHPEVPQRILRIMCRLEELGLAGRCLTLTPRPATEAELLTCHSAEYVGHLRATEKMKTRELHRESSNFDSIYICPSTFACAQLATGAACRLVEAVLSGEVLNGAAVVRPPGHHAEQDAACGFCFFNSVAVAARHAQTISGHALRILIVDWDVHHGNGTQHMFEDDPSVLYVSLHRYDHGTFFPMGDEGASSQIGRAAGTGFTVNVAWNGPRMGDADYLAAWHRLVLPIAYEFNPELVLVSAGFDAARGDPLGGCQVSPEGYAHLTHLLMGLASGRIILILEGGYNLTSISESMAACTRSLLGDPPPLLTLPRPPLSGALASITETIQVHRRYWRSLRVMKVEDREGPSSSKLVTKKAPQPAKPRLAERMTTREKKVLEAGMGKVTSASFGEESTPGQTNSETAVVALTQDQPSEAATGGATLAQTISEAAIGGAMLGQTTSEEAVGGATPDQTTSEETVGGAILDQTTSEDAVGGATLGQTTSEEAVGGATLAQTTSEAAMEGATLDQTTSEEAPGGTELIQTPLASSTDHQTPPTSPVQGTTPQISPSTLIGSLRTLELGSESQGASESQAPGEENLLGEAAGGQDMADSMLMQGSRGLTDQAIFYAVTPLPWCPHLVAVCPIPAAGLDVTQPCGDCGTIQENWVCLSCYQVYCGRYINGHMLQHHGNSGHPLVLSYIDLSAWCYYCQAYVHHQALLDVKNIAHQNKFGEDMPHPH
Assay: HDAC6 enzyme activity inhibition assay (HDAC Fluorimetric Drug Discovery Kit)
Assay type: biochemical
Conditions: for HDAC6 selectivity (fold): HDAC6 over HDAC1; for IC50: human recombinant HDAC6, same protocol as HDAC1, read-out: HDAC6
Description: In order to examine the HDAC6 selectivity of the compounds of formula I of the present invention by HDAC1 and HDAC6 enzymatic activity inhibition assays, an experiment was performed using a conventional substance as a control.
HDAC enzyme activity was measured using a HDAC Fluorimetric Drug Discovery Kit (BML-AK511, 516, Enzo Life Science). For the HDAC1 enzyme activity test, human recombinant HDAC1 (BML-SE456) was used as an enzyme source, and Fluor de Lys®-“SIRT1 (BNL-KI177) was used as a substrate. A 5-fold dilution of the compound was seeded into a 96-well plate, and then 0.3 μg of the enzyme and 10 μM of the substrate were added to each well of the plate and allowed to react at 30° C. for 60 minutes. Then, Fluor de Lys®-Developer II (BML-KI176) was added thereto and allowed to react for 30 minutes, after which the fluorescence value (Ex 360, Em 460) was measured using a multi-plate reader (Flexstation 3, Molecular Device). The HDAC6 enzyme was tested using human recombinant HDAC6 (382180) (Calbiochem) according to the same protocol as the HDAC1 enzyme activity test method. Based on the resulting values, each IC5, value was calculated using GraphPad Prism4.0 program.

Structure (SMILES) | HDAC6 selectivity (fold) | IC50 [µM]
CN1CCN(C(=O)N(Cc2ccc(-c3nnc(C(F)(F)F)o3)cc2)c2ccccc2)CC1 [Compound 21285, 4-methyl-N-phenyl-N-(4-(5-(trifluoromethyl)-1,3,4-oxadiazol-2-yl)benzyl)piperazine-1-carboxamide] | 91 | 0.11
O=C(N1CCOCC1)N(Cc1ccc(-c2nnc(C(F)(F)F)o2)cc1F)c1ccccc1 [Compound 21318, N-(2-fluoro-4-(5-(trifluoromethyl)-1,3,4-oxadiazol-2-yl)benzyl)-N-phenylmorpholine-4-carboxamide] | 145 | 0.069
O=C(N1CCOCC1)N(Cc1ccc(-c2nnc(C(F)(F)F)o2)c(F)c1)c1ccccc1 [Compound 21319, N-(3-fluoro-4-(5-(trifluoromethyl)-1,3,4-oxadiazol-2-yl)benzyl)-N-phenylmorpholine-4-carboxamide] | 52 | 0.192
O=C(N1CCOCC1)N(Cc1ccc(-c2nnc(C(F)F)o2)cc1)c1ccccc1 [Compound 21325, N-(4-(5-(difluoromethyl)-1,3,4-oxadiazol-2-yl)benzyl)-N-phenylmorpholine-4-carboxamide] | 204 | 0.049
O=C(N1CCOCC1)N(Cc1ccc(CCc2nnc(C(F)(F)F)o2)cc1)c1ccccc1 [Compound 21327, N-phenyl-N-(4-(2-(5-(trifluoromethyl)-1,3,4-oxadiazol-2-yl)ethyl)benzyl)morpholine-4-carboxamide] | 1 | –
O=C(N1CCOCC1)N(Cc1cccc(-c2nnc(C(F)(F)F)o2)c1)c1ccccc1 [Compound 21329, N-phenyl-N-(3-(5-(trifluoromethyl)-1,3,4-oxadiazol-2-yl)benzyl)morpholine-4-carboxamide] | 1 | –
O=C(N1CCOCC1)N(Cc1ccc(-c2nnc(C(F)(F)F)o2)nc1)c1ccccc1 [Compound 21333, N-phenyl-N-((6-(5-(trifluoromethyl)-1,3,4-oxadiazol-2-yl)pyridin-3-yl)methyl)morpholine-4-carboxamide] | 1 | –
O=C(N1CCOCC1)N(Cc1ccc(-c2nnc(C(F)(F)F)o2)cn1)c1ccccc1 [Compound 21336, N-phenyl-N-((5-(5-(trifluoromethyl)-1,3,4-oxadiazol-2-yl)pyridin-2-yl)methyl)morpholine-4-carboxamide] | 105 | 0.095
O=C(N1CCOCC1)N(Cc1ccc(-c2nnc(C(F)F)o2)cc1F)c1ccccc1 [Compound 21337, N-(4-(5-(difluoromethyl)-1,3,4-oxadiazol-2-yl)-2-fluorobenzyl)-N-phenylmorpholine-4-carboxamide] | 357 | 0.028
O=C(NC1CCC1)N(Cc1ccc(-c2nnc(C(F)(F)F)o2)cc1)c1ccccc1 [Compound 21340, 3-Cyclobutyl-1-phenyl-1-(4-(5-(trifluoromethyl)-1,3,4-oxadiazol-2-yl)benzyl)urea] | 12 | 0.836
O=C(NC1CCCC1)N(Cc1ccc(-c2nnc(C(F)(F)F)o2)cc1)c1ccccc1 [Compound 21341, 3-Cyclopentyl-1-phenyl-1-(4-(5-(trifluoromethyl)-1,3,4-oxadiazol-2-yl)benzyl)urea] | 8 | 1.19
O=C(NC1CCCCC1)N(Cc1ccc(-c2nnc(C(F)(F)F)o2)cc1)c1ccccc1 [Compound 21342, 3-Cyclohexyl-1-phenyl-1-(4-(5-(trifluoromethyl)-1,3,4-oxadiazol-2-yl)benzyl)urea] | 5 | 1.99
COc1cc(-c2nnc(C(F)(F)F)o2)ccc1CN(C(=O)N1CCOCC1)c1ccccc1 [Compound 21343, N-(2-methoxy-4-(5-(trifluoromethyl)-1,3,4-oxadiazol-2-yl)benzyl)-N-phenylmorpholine-4-carboxamide] | 1 | 10.7
O=C(N1CCN(Cc2ccccc2)CC1)N(Cc1ccc(-c2nnc(C(F)(F)F)o2)cc1)c1ccccc1 [Compound 21344, 4-Benzyl-N-phenyl-N-(4-(5-(trifluoromethyl)-1,3,4-oxadiazol-2-yl)benzyl)piperazine-1-carboxamide] | 12 | 0.83
COCCN1CCN(C(=O)N(Cc2ccc(-c3nnc(C(F)(F)F)o3)cc2)c2ccccc2)CC1 [Compound 21345, 4-(2-Methoxyethyl)-N-phenyl-N-(4-(5-(trifluoromethyl)-1,3,4-oxadiazol-2-yl)benzyl)piperazine-1-carboxamide] | 54 | 0.185
CCN1CCN(C(=O)N(Cc2ccc(-c3nnc(C(F)(F)F)o3)cc2)c2ccccc2)CC1 [Compound 21346, 4-Ethyl-N-phenyl-N-(4-(5-(trifluoromethyl)-1,3,4-oxadiazol-2-yl)benzyl)piperazine-1-carboxamide] | 58 | 0.173
CC(C)N1CCN(C(=O)N(Cc2ccc(-c3nnc(C(F)(F)F)o3)cc2)c2ccccc2)CC1 [Compound 21347, 4-Isopropyl-N-phenyl-N-(4-(5-(trifluoromethyl)-1,3,4-oxadiazol-2-yl)benzyl)piperazine-1-carboxamide] | 55 | 0.183
O=C(N1CCOCC1)N(CCc1ccc(-c2nnc(C(F)(F)F)o2)cc1)c1ccccc1 [Compound 21348, N-phenyl-N-(4-(5-(trifluoromethyl)-1,3,4-oxadiazol-2-yl)phenethyl)morpholine-4-carboxamide] | 1 | 8.36
O=C(N1CCC1)N(Cc1ccc(-c2nnc(C(F)(F)F)o2)cc1)c1ccccc1 [Compound 21349, N-phenyl-N-(4-(5-(trifluoromethyl)-1,3,4-oxadiazol-2-yl)benzyl)azetidine-1-carboxamide] | 23 | 0.43
O=C(N1CCCC1)N(Cc1ccc(-c2nnc(C(F)(F)F)o2)cc1)c1ccccc1 [Compound 21350, N-phenyl-N-(4-(5-(trifluoromethyl)-1,3,4-oxadiazol-2-yl)benzyl)pyrrolidine-1-carboxamide] | 19 | 0.53
O=C(N1CCCCC1)N(Cc1ccc(-c2nnc(C(F)(F)F)o2)cc1)c1ccccc1 [Compound 21351, N-phenyl-N-(4-(5-(trifluoromethyl)-1,3,4-oxadiazol-2-yl)benzyl)piperidine-1-carboxamide] | 38 | 0.261
CC(C)(C)OC(=O)N1CCN(C(=O)N(Cc2ccc(-c3nnc(C(F)(F)F)o3)cc2)c2ccccc2)CC1 [Compound 21352, Tert-butyl 4-(phenyl(4-(5-(trifluoromethyl)-1,3,4-oxadiazol-2-yl)benzyl)carbamoyl)piperazine-1-carboxylate] | 9 | 1.1
CCNC(=O)N(Cc1ccc(-c2nnc(C(F)(F)F)o2)cc1)c1ccccc1 [Compound 21353, 3-Ethyl-1-phenyl-1-(4-(5-(trifluoromethyl)-1,3,4-oxadiazol-2-yl)benzyl)urea] | 14 | 0.72
CCCNC(=O)N(Cc1ccc(-c2nnc(C(F)(F)F)o2)cc1)c1ccccc1 [Compound 21354, 1-Phenyl-3-propyl-1-(4-(5-(trifluoromethyl)-1,3,4-oxadiazol-2-yl)benzyl)urea] | 26 | 0.38
